# Experimental data taken from paper PMC10819243 (Pharmaceutics, 2024).
# Legend:
# HeLa = test: MTT assay, HeLa; type: cell-based
# KB = test: MTT assay, KB; type: cell-based
# MCF-7 = test: MTT assay, MCF-7; type: cell-based
# A-549 = test: MTT assay, A-549; type: cell-based
# [1] = test system: HDF (normal fibroblast cell line); test: MTT assay, HDF; type: cell-based, human
# [2] = test system: HeLa, KB, MCF-7, A-549 and HDF cell lines; test: MTT assay, statements over several tested cell lines; type: cell-based; settings: summary over the tested cell lines; read-out: IC50 values for the tested cell lines (range or summary)
# U-87MG cells = test: Apoptosis assay (DNA fragmentation), U-87MG; type: cell-based
# Excerpt: The necrosis process induced by all the tested compounds was very small.
# [3] = ratio of IC50 values vs oleanolic acid (1)
structure (smiles),measurement,setting,value
"COC(=O)[C@]12CCC(C)(C)CC1C1=CCC3[C@@]4(C)CC/C(=N\OC(=O)c5cc([N+](=O)[O-])cc([N+](=O)[O-])c5)C(C)(C)C4CC[C@@]3(C)[C@]1(C)CC2 (some centres unmarked) [Compound 5g, 3-(3′,5′-Dinitro)benzoxyiminoolean-12-en-28-oic acid methyl ester]",IC50,"HeLa; Homo sapiens, MTT assay, HeLa cervix carcinoma, (±s) standard deviation",4.19 µM
same,Selectivity Index HeLa,HeLa; IC50 for normal cell line (HDF)/IC50 for HeLa,1.48
same,"fold as active as OA (1), HeLa",HeLa; [3],~3 fold
same,IC50,"KB; Homo sapiens, MTT assay, KB nasopharynx carcinoma, (±s) standard deviation",4.61 µM
same,Selectivity Index KB,KB; IC50 for normal cell line (HDF)/IC50 for KB,1.35
same,"fold as active as OA (1), KB",KB; [3],3.2 fold
same,IC50,"MCF-7; Homo sapiens, MCF7, MTT assay, MCF-7 breast carcinoma, (±s) standard deviation",5.18 µM
same,Selectivity Index MCF-7,MCF-7; IC50 for normal cell line (HDF)/IC50 for MCF-7,1.20
same,"fold as active as OA (1), MCF-7",MCF-7; [3],~3 fold
same,IC50,"A-549; Homo sapiens, A549, MTT assay, A-549 lung carcinoma, (±s) standard deviation",4.82 µM
same,Selectivity Index A-549,A-549; IC50 for normal cell line (HDF)/IC50 for A-549,1.29
same,"fold as active as OA (1), A-549",A-549; [3],~2 fold
same,IC50,"[1]; Homo sapiens, Fibroblast, MTT assay, HDF normal fibroblast cell line, (±s) standard deviation",6.22 µM
same,"fold as active as OA (1), HDF","[1]; ratio of IC50 values vs oleanolic acid (1), normal cell line",~3 fold
same,IC50,[2],4.19 to 8.98 µM
same,increase in DNA fragmentation,U-87MG cells; 0.1 µg/mL,2.5 fold
same,increase in DNA fragmentation,U-87MG cells; 1.0 µg/mL,4.2 fold
